Molecular target: T1, F508del (Homo sapiens, UniProt P13569, DEL508-508)
T1 construct: expressed in transfected cells
Test: Protocol 2: FRET membrane potential optical assay (VIPR), identification of correction compounds
Assay type: cell-based
Settings: Table 3; compounds of Table 1 as modulators of CFTR activity; protocol not stated
Summary of the method: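 Mouse NIH3T3 cells, stable F508del; cpd 16 hrs, 37° C., serum-free; pos ctrl 27° C. 16 hrs. Rinse in Krebs Ringers, dye load, then add 10 μM forskolin + 20 μM genistein with Cl^−-free (gluconate) medium; depolarization by FRET voltage dyes.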

T1 sequence (P13569 with tags, fused parts or gaps DEL508-508): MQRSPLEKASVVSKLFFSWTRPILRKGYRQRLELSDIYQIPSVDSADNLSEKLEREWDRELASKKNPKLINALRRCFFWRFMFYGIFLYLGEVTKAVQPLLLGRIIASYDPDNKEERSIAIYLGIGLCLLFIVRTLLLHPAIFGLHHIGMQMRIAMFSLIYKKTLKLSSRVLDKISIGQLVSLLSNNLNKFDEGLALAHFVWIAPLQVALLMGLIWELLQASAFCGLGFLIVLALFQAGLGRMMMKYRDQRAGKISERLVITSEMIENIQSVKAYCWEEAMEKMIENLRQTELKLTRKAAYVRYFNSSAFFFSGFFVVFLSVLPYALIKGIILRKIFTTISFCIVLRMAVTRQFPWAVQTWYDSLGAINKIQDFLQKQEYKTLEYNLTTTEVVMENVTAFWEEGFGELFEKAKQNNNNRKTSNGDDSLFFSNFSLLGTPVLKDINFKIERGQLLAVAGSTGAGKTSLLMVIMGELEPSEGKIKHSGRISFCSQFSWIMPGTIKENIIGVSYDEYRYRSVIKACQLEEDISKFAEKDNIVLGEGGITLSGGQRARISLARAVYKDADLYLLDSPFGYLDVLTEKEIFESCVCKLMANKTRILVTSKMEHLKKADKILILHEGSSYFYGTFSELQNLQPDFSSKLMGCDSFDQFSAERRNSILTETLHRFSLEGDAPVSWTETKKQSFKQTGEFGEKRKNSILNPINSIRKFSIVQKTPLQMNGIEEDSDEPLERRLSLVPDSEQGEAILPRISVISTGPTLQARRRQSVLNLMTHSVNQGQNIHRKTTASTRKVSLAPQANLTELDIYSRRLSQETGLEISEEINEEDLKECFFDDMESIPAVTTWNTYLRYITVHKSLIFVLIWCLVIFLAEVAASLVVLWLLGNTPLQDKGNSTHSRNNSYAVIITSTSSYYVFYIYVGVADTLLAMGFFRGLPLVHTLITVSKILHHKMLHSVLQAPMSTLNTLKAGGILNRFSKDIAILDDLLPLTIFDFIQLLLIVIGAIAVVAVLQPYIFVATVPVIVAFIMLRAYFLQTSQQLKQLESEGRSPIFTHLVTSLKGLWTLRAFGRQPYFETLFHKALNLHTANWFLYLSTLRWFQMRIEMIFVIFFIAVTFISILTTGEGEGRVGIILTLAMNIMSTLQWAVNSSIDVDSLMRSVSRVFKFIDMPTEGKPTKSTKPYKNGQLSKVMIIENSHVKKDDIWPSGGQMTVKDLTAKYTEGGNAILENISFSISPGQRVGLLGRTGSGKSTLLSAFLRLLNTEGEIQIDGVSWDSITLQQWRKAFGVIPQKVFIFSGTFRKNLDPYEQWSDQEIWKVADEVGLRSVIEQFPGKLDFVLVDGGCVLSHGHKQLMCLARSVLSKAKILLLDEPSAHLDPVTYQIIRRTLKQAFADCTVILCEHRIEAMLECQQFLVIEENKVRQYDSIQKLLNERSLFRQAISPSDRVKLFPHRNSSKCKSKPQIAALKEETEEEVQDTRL

For `CC(C)COc1cc(F)cc(-c2ccc(C(=O)NS(=O)(=O)c3cccc(N)n3)c(N3CCC(Cc4ccccc4)C3)n2)c1` (stereo not shown) [Compound 473, N-[(6-amino-2-pyridyl)sulfonyl]-2-(3-benzylpyrrolidin-1-yl)-6-(3-fluoro-5-isobutoxy-phenyl)pyridine-3-carboxamide], the EC30 was “+++ (“+++” means <3 uM)”.
For `COc1ccc2c(c1)C(C)(C(=O)NS(=O)(=O)c1cccc(N)n1)N(Cc1c(C)cc(C)cc1C)C2` (stereo not shown) [Compound 474, N-[(6-amino-2-pyridyl)sulfonyl]-6-methoxy-1-methyl-2-[(2,4,6-trimethylphenyl)methyl]isoindoline-1-carboxamide], the EC30 was “+++ (“+++” means <3 uM)”.
For `Cc1cc(C)c(Oc2nc(-c3cnc(N4CCCCC4)nc3)ccc2C(=O)NS(=O)(=O)c2cccc(N)n2)c(C)c1` [Compound 475, N-[(6-amino-2-pyridyl)sulfonyl]-6-[12-(1-piperidyl)pyrimidin-5-yl]-2-(2,4,6-trimethylphenoxy)pyridine-3-carboxamide], the EC30 was “+++ (“+++” means <3 uM)”.
`CC(C)Oc1ccc(-c2ccc(C(=O)NS(=O)(=O)c3cccc(N)n3)c(N3C[C@@H]4CC[C@H]3C4)n2)cn1` [Compound 476, N-[(6-amino-2-pyridyl)sulfonyl]-2-[(1R,4S)-3-azabicyclo[2.2.1]heptan-3-yl]-6-(6-isopropoxy-3-pyridyl)pyridine-3-carboxamide] was tested, and the EC30 was “++ (“++” means between 3 uM and 10 uM)”.
`COc1c(C)cccc1-c1ccc(C(=O)NS(=O)(=O)c2cccc(N)n2)c(Oc2c(C)cc(C)cc2C)n1` [Compound 477, N-[(6-amino-2-pyridyl)sulfonyl]-6-(2-methoxy-3-methyl-phenyl)-2-(2,4,6-trimethylphenoxy)pyridine-3-carboxamide] was tested, and the EC30 was “+++ (“+++” means <3 uM)”.
In the case of `CC(C)(C)c1ccc(C(=O)NS(=O)(=O)c2cccc(N)n2)c(C2=CCCCC2)n1` [Compound 478, N-[(6-amino-2-pyridyl)sulfonyl]-6-tert-butyl-2-(cyclohexen-1-yl)pyridine-3-carboxamide], the EC30 is reported as “++ (“++” means between 3 uM and 10 uM)”.
`CC(C)COc1cc(F)cc(-c2ccc(C(=O)NS(=O)(=O)c3cccc(N)n3)c(N3CCCC3C)n2)c1` (stereo not shown) [Compound 479, N-[(6-amino-2-pyridyl)sulfonyl]-6-(3-fluoro-5-isobutoxy-phenyl)-2-(2-methylpyrrolidin-1-yl)pyridine-3-carboxamide] was tested, and the EC30 was “+++ (“+++” means <3 uM)”.
For `Cc1cc(C)c(CN2Cc3ccccc3C2(C)C(=O)NS(=O)(=O)c2nccnc2N)c(C)c1` (stereo not shown) [Compound 480, N-(3-aminopyrazin-2-yl)sulfonyl-1-methyl-2-[(2,4,6-trimethylphenyl)methyl]isoindoline-1-carboxamide], the EC30 was “+++ (“+++” means <3 uM)”.
For `CC(C)COc1cc(F)cc(-c2ccc(C(=O)NS(=O)(=O)c3ccc[nH]c3=O)c(N3CCC[C@@H](c4ccccc4)C3)n2)c1` [Compound 481, 6-(3-fluoro-5-isobutoxy-phenyl)-N-[(2-oxo-1H-pyridin-3-yl)sulfonyl]-2-[(3S)-3-phenyl-1-piperidyl]pyridine-3-carboxamide], the EC30 was “+++ (“+++” means <3 uM)”.
In the case of `Cc1cc(C)c(Oc2nc(C)ccc2C(=O)NS(=O)(=O)c2cccc(NC(C)C)n2)c(C)c1` [Compound 482, N-[[6-(isopropylamino)-2-pyridyl]sulfonyl]-6-methyl-2-(2,4,6-trimethylphenoxy)pyridine-3-carboxamide], the EC30 is reported as “+++ (“+++” means <3 uM)”.
`Cc1cc(C(=O)NS(=O)(=O)c2cccc(N)n2)c(N2[C@H](C)CC[C@@H]2C)nc1-c1cc(F)cc(OCC(C)C)c1` [Compound 483, N-[(6-amino-2-pyridyl)sulfonyl]-2-[(2R,5S)-2,5-dimethylpyrrolidin-1-yl]-6-(3-fluoro-5-isobutoxy-phenyl)-5-methyl-pyridine-3-carboxamide] was tested, and the EC30 was “+++ (“+++” means <3 uM)”.
With `COc1cccc(-c2ccc(C(=O)NS(=O)(=O)c3cccc(N)n3)c(Oc3c(C)cc(C)cc3C)n2)c1OC` [Compound 485, N-[(6-amino-2-pyridyl)sulfonyl]-6-(2,3-dimethoxyphenyl)-2-(2,4,6-trimethylphenoxy)pyridine-3-carboxamide] the EC30 was “+++ (“+++” means <3 uM)”.
In the case of `Cc1cc(C(=O)NS(=O)(=O)c2cccc(N)n2)c(N2[C@H](C)CC[C@@H]2C)nc1-c1ccc(OC(C)C)nc1` [Compound 486, N-[(6-amino-2-pyridyl)sulfonyl]-2-[(2R,5S)-2,5-dimethylpyrrolidin-1-yl]-6-(6-isopropoxy-3-pyridyl)-5-methyl-pyridine-3-carboxamide], the EC30 is reported as “++ (“++” means between 3 uM and 10 uM)”.
For `CC(C)Oc1cc(F)cc(-c2ccc(C(=O)NS(=O)(=O)c3ccc[nH]c3=O)c(N3[C@H](C)CC[C@@H]3C)n2)c1` [Compound 487, 2-[(2S,5R)-2,5-dimethylpyrrolidin-1-yl]-6-(3-fluoro-5-isopropoxy-phenyl)-N-[(2-oxo-1H-pyridin-3-yl)sulfonyl]pyridine-3-carboxamide], the EC30 was “++ (“++” means between 3 uM and 10 uM)”.
`CC(C)COc1cc(F)cc(-c2ccc(C(=O)NS(=O)(=O)c3cccc(N)n3)c(N3CC(c4ccccc4)CC3C)n2)c1` (stereo not shown) [Compound 488, N-[(6-amino-2-pyridyl)sulfonyl]-6-(3-fluoro-5-isobutoxy-phenyl)-2-(2-methyl-4-phenyl-pyrrolidin-1-yl)pyridine-3-carboxamide] was tested, and the EC30 was “+++ (“+++” means <3 uM)”.
`CC(C)Oc1ccc(-c2ccc(C(=O)NS(=O)(=O)c3cccc(N)n3)c(N3CCCC(c4ccccn4)C3)n2)cn1` (stereo not shown) [Compound 489, N-[(6-amino-2-pyridyl)sulfonyl]-6-(6-isopropoxy-3-pyridyl)-2-[3-(2-pyridyl)-1-piperidyl]pyridine-3-carboxamide] was tested, and the EC30 was “+++ (“+++” means <3 uM)”.
`CC(C)COc1cc(F)cc(-c2ccc(C(=O)NS(=O)(=O)c3cccc(N)n3)c(N3CC4CC4C3C(F)(F)F)n2)c1` (stereo not shown) [Compound 490, N-[(6-amino-2-pyridyl)sulfonyl]-6-(3-fluoro-5-isobutoxy-phenyl)-2-[4-(trifluoromethyl)-3-azabicyclo[3.1.0]hexan-3-yl]pyridine-3-carboxamide] was tested, and the EC30 was “+++ (“+++” means <3 uM)”.
For `CCCOc1cc(-c2ccc(C(=O)NS(=O)(=O)c3cccc(N)n3)c(N3CC(C)CC3(C)C)n2)ccn1` (stereo not shown) [Compound 491, N-[(6-amino-2-pyridyl)sulfonyl]-6-(2-propoxy-4-pyridyl)-2-(2,2,4-trimethylpyrrolidin-1-yl)pyridine-3-carboxamide], the EC30 was “+++ (“+++” means <3 uM)”.
For `CC(C)COc1cc(F)cc(-c2ccc(C(=O)NS(=O)(=O)c3ccc[nH]c3=O)c(N3C[C@@H](C)CC3(C)C)n2)c1` [Compound 492, 6-(3-fluoro-5-isobutoxy-phenyl)-N-[(2-oxo-1H-pyridin-3-yl)sulfonyl]-2-[(4S)-2,2,4-trimethylpyrrolidin-1-yl]pyridine-3-carboxamide], the EC30 was “+++ (“+++” means <3 uM)”.
In the case of `CCC(C)(C)C1CCCN1c1nc(-c2cc(F)cc(OCC(C)C)c2)ccc1C(=O)NS(=O)(=O)c1cccc(N)n1` (stereo not shown) [Compound 493, N-[(6-amino-2-pyridyl)sulfonyl]-2-[2-(1,1-dimethylpropyl)pyrrolidin-1-yl]-6-(3-fluoro-5-isobutoxy-phenyl)pyridine-3-carboxamide], the EC30 is reported as “+++ (“+++” means <3 uM)”.
`Cc1cc(C)c(Oc2nc(-c3ccc(OC(C)C)cc3)ccc2C(=O)NS(=O)(=O)c2ccc[nH]c2=O)c(C)c1` [Compound 494, 6-(4-isopropoxyphenyl)-N-[(2-oxo-1H-pyridin-3-yl)sulfonyl]-2-(2,4,6-trimethylphenoxy)pyridine-3-carboxamide] was tested, and the EC30 was “+++ (“+++” means <3 uM)”.
With `C[C@@H]1CC[C@H](C)N1c1nc(-c2cncc(OC3CCCC3)c2)ccc1C(=O)NS(=O)(=O)c1cccc(N)n1` [Compound 495, N-[(6-amino-2-pyridyl)sulfonyl]-6-[5-(cyclopentoxy)-3-pyridyl]-2-[(2S,5R)-2,5-dimethylpyrrolidin-1-yl]pyridine-3-carboxamide] the EC30 was “++ (“++” means between 3 uM and 10 uM)”.
`CC(C)COc1cc(F)cc(-c2ccc(C(=O)NS(=O)(=O)c3cccc(N)n3)c(N3C(C)CCC3(C)C)n2)c1` (stereo not shown) [Compound 496, N-[(6-amino-2-pyridyl)sulfonyl]-6-(3-fluoro-5-isobutoxy-phenyl)-2-(2,2,5-trimethylpyrrolidin-1-yl)pyridine-3-carboxamide] was tested, and the EC30 was “+++ (“+++” means <3 uM)”.
In the case of `CC(C)Oc1ccc(-c2ccc(C(=O)NS(=O)(=O)c3ccc[nH]c3=O)c(N3C[C@@H](C)CC3(C)C)n2)cn1` [Compound 497, 6-(6-isopropoxy-3-pyridyl)-N-[(2-oxo-1H-pyridin-3-yl)sulfonyl]-2-[(4S)-2,2,4-trimethylpyrrolidin-1-yl]pyridine-3-carboxamide], the EC30 is reported as “+++ (“+++” means <3 uM)”.
With `CC(C)COc1cc(F)cc(-c2ccc(C(=O)NS(=O)(=O)c3ccn[nH]3)c(N3CCCC(C(C)C)C3)n2)c1` (stereo not shown) [Compound 498, 6-(3-fluoro-5-isobutoxy-phenyl)-2-(3-isopropyl-1-piperidyl)-N-(1H-pyrazol-5-ylsulfonyl)pyridine-3-carboxamide] the EC30 was “+++ (“+++” means <3 uM)”.
In the case of `COc1ncc(-c2ccc(C(=O)NS(=O)(=O)c3cccc(N)n3)c(Oc3c(C)cc(C)cc3C)n2)c(OC)n1` [Compound 499, N-[(6-amino-2-pyridyl)sulfonyl]-6-(2,4-dimethoxypyrimidin-5-yl)-2-(2,4,6-trimethylphenoxy)pyridine-3-carboxamide], the EC30 is reported as “++ (“++” means between 3 uM and 10 uM)”.
For `CCCN(CC1CC1)c1nc(-c2ccc(OC(C)C)nc2)ccc1C(=O)NS(=O)(=O)c1cccc(N)n1` [Compound 500, N-[(6-amino-2-pyridyl)sulfonyl]-2-[cyclopropylmethyl(propyl)amino]-6-(6-isopropoxy-3-pyridyl)pyridine-3-carboxamide], the EC30 was “+++ (“+++” means <3 uM)”.
`Cc1cc(C)c(Oc2nc(C(C)(C)C)ccc2C(=O)NS(=O)(=O)c2cccc(C(F)F)n2)c(C)c1` [Compound 501, 6-tert-butyl-N-[[6-(difluoromethyl)-2-pyridyl]sulfonyl]-2-(2,4,6-trimethylphenoxy)pyridine-3-carboxamide] was tested, and the EC30 was “+++ (“+++” means <3 uM)”.
